Measurements from patent publication US6900008B2, “Methods and formulations for minimizing spasticity in blood vessel grafts” (Emory University, priority 2001, dated 2005).
Marks after values point to notes of the source that are not given here.

Columns and labels:
[1] = system: canine radial artery segments; experiment: Norepinephrine-induced contraction of pretreated canine radial artery segments in organ chambers; format: cell-based; conditions: for Maximal constriction response to norepinephrine, % of KCl response: KCl 30 mmol/L
Procedure: (§1) Canine radial arteries were harvested without pedicles, and incubated in control buffer or solutions of papavarine (10^−6M), 2, 3-butadione monoxime (BDM, 10^−6M) (a putative protein phosphatase) or phenoxybenzamine (10^−6M) for a period of 30 minutes. The arteries were then washed with buffer and stored in a drug-free culture medium for a set time period (2 hours, 24 hours or 48 hours per example). After storage, vasopressors norepinephrine or phenylephrine were added at incremental concentrations ranging from 0.7 to 3.5 μmol/L (norepinephrine) or 0.300 to 1.5 μmol/L (phenylephrine) to all arterial samples to attempt to induce spasticity or vasoconstriction. The degree of vasoconstriction was then quantified in organ chambers. The responses of the arterial samples to norepinephrine or phenylephrine were compared with spasticity or constriction with receptor-independent potassium chloride (KCl) at 30 mmol/L.
(§2) The maximum responses of untreated and treated radial artery segments of KCl, phenylephrine and norepinephrine (in grams of tension) are summarized in Table 1. The constriction (contraction) responses to phenylephrine and norepinephrine given below are represented as a percentage of the responses to KCl, i.e. 100×(grams tension norepinephrine/grams tension KCl).

[2] = system: canine radial artery segments; experiment: Phenylephrine-induced contraction of pretreated canine radial artery segments in organ chambers; format: cell-based; conditions: for Constriction response to the maximum concentration of phenylephrine, % of KCl response: KCl 30 mmol/L
Procedure: as §1, §2

[3] = system: radial artery segments (endothelium); experiment: Endothelial relaxation response to acetylcholine of stored radial artery segments; format: cell-based, canine
Excerpt: The endothelium contributes to the overall vascular tone by tonic release of autacoids such as nitric oxide among other vasoactive substances. In addition, any attenuation of function related to autacoid release by phenoxybenzamine or its diluents would be undesirable.

[4] = system: human radial artery segments; experiment: Phenylephrine-induced vasoconstriction of human radial artery rings in organ chambers; format: cell-based; conditions: 15 μM PE
Procedure: Radial artery (RA) segments were obtained from patients having elective coronary artery bypass grafting with or without cardiopulmonary bypass at the Crawford Long Hospital of Emory University. A modified Allen's test was performed to assess the adequacy of collateral circulation to the hand preoperatively. The RA was harvested with its pedicle containing the venae comitantes, perivascular fat and areolar tissue (no fasciotomy) using a “no-touch” technique. Branches of the RA were ligated with vascular clips. A subset of the radial artery grafts had the musculofascial tissue incised (with fasciotomy) to expose the aerolar tissue adjacent to the graft. The RA was then placed in a solution containing 20 mL heparinized blood, 1.6 mL 1% lidocaine and 0.4 mL papaverine (30 mg/mL) for approximately 30 minutes. […] Prior to its placement in the aortocoronary position, a small segment of the RA was obtained and immediately placed in Krebs-Henseleit (K-H) buffer (118 mmol/L NaCl, 4.7 mmol/L KCl, 1.2 mmol/L KH2PO4, 1.2 mmol/L MgSO4, 2.5 mmol/L CaCl2, 12.5 mmol/L NaHCO3, and 10 mmol/L glucose) at 4° C., pH 7.4 and transported to the Cardiothoracic Research Laboratory.
The harvested radial artery segment with or without fasciotomy was placed into K-H buffer pH 7.4 with either 10, 100 or 1000 μM PBZ or vehicle. The radial artery was flushed intraluminally twice with this solution, once at the beginning and once at the end of a 30 minute incubation period, which approximates the time between RA harvest and placement in the aortocoronary position. In addition, Control RA segments were obtained prior to intraoperative pretreatment of the conduit with the papaverine/lidocaine solution and received no other treatment. The segments were prepared for placement in organ chambers by carefully skeletonizing them in cold K-H buffer and cutting them into rings three to five mm in length. The rings were then mounted on stainless steel hooks, connected to FT-03 force displacement transducers, and placed into Radnoti organ chambers (Radnoti Glass, Monrovia, Calif. containing 7 mL of oxygenated (95% O2, 5% CO2) K-H buffer at 37° C. and pH 7.4. Indomethacin (10 μmol/L) was added to the buffer to block responses to endogenous prostanoids. The rings were stabilized for one hour with frequent buffer changes and set to a predetermined tension that allowed 75% of maximal contraction to 30 mM potassium chloride (KCl).
The rings were then incubated with increasing concentrations of PE (0.5 to 15 μM) or NE (0.5 to 15 μM). After the highest concentration of alpha adrenergic agent was achieved, 30 mM KCl was added to the bath to quantify the maximal nonreceptor-mediated constriction. In randomly selected vessels, the integrity of the radial artery endothelium was also tested for its receptor-dependent relaxation response to incremental concentrations of acetylcholine (ACh), a stimulator of nitric oxide synthase. The rings were precontracted with the thromboxane A2 mimetic U46619 (1.4 nmol/L), and then exposed to increasing concentrations of Ach (1 nmol/L to 11.7 μmol/L) in the presence of 10 μM indomethacin.
(§3) The changes in isometric force were quantified using an analog-to-digital converter sampling at 2 Hz. The responses were analyzed using a Windows-based videographics program ([…], Wake Forest University, Winston-Salem, N.C.). The force of contraction elicited by the exposure to increasing concentrations of PE and NE was expressed as a percentage of the maximal contraction generated by KCl in each ring. The degree of relaxation after exposure to ACh was expressed as the percent tension reduction from the maximal force of contraction obtained from U46619.
If a significant difference between groups was assigned by ANOVA, a post-hoc Student-Newman-Keuls test was applied to locate the source of differences. A p value of <0.05 was considered to be statistically significant. All data are reported as means±the standard error of the mean.

[5] = system: human radial artery segments; experiment: Norepinephrine-induced vasoconstriction of human radial artery rings in organ chambers; format: cell-based
Procedure: (§4) Radial artery (RA) segments were obtained from patients having elective coronary artery bypass grafting with or without cardiopulmonary bypass at the Crawford Long Hospital of Emory University. A modified Allen's test was performed to assess the adequacy of collateral circulation to the hand preoperatively. The RA was harvested with its pedicle containing the venae comitantes, perivascular fat and areolar tissue (no fasciotomy) using a “no-touch” technique. Branches of the RA were ligated with vascular clips. A subset of the radial artery grafts had the musculofascial tissue incised (with fasciotomy) to expose the aerolar tissue adjacent to the graft. […]
(§5) The rings were then incubated with increasing concentrations of PE (0.5 to 15 μM) or NE (0.5 to 15 μM). After the highest concentration of alpha adrenergic agent was achieved, 30 mM KCl was added to the bath to quantify the maximal nonreceptor-mediated constriction. […]
as §3, with “The degree of relaxation after exposure to ACh was expressed as the percent tension reduction from the maximal force of contraction obtained from U46619.” left out

[6] = system: human radial artery endothelium; experiment: Endothelial function: relaxation to acetylcholine of U46619-precontracted human radial artery rings; format: cell-based; conditions: 12 μM ACh; without fasciotomy; PBZ at 1000 μM where used
Procedure: as §4, §5
as §3, with “The degree of relaxation after exposure to ACh was expressed as the percent tension reduction from the maximal force of contraction obtained from U46619.” left out

[7] = 2 Hours drug-free storage after 30 min incubation with 10^−6M drug
[8] = 24 Hours drug-free storage after 30 min incubation with 10^−6M drug
[9] = 48 Hours drug-free storage after 30 min incubation with 10^−6M drug
[10] = 2 hours after 30 min pretreatment with 10^−6M drug
[11] = 48 hours after 30 min pretreatment with 10^−6M drug
[12] = 48 hours of storage, did not reach significance
[13] = after washing (2 hours) or 24 or 48 hours after the 30-minute pretreatment, 10^−6M
[14] = 24 hours after 30 min pretreatment with 10^−6M drug

CC(=O)C(C)=NO [BDM, 2,3-butadione monoxime]
Contraction response to norepinephrine from resting force (maximum response) [1, 7]: 5.69 ± 0.29 grams of tension
Contraction response to norepinephrine from resting force (maximum response) [1, 8]: 4.22 ± 0.75 grams of tension
Contraction response to norepinephrine from resting force (maximum response) [1, 9]: 7.01 ± 0.85 grams of tension
Maximal constriction response to norepinephrine, % of KCl response [1, 10]: approximately 75%
Constriction responses to norepinephrine compared with control vessels (in words) ([1]; after 24 hours and 48 hours of drug-free storage): similar
Contraction response to phenylephrine from resting force (maximum response) [2, 7]: 8.35 ± 0.79 grams of tension
Contraction response to phenylephrine from resting force (maximum response) [2, 8]: 9.43 ± 0.64 grams of tension
Contraction response to phenylephrine from resting force (maximum response) [2, 9]: 7.01 ± 0.80 grams of tension
Constriction response to the maximum concentration of phenylephrine, % of KCl response [2, 11]: approximately 39%
Constrictor responses to phenylephrine compared with control segments (in words) ([2]; at 2 hours and 24 hours): very similar

COc1ccc(Cc2nccc3cc(OC)c(OC)cc23)cc1OC [papaverine]
Contraction response to norepinephrine from resting force (maximum response) [1, 7]: 7.65 ± 0.72 grams of tension
Contraction response to norepinephrine from resting force (maximum response) [1, 8]: 10.37 ± 0.26 grams of tension
Contraction response to norepinephrine from resting force (maximum response) [1, 9]: 12.55 ± 1.22 grams of tension
Maximal constrictor response to norepinephrine compared with control vessels (in words) [1, 12]: paradoxical trend toward increased maximal constrictor response
Effect on norepinephrine-induced contraction (in words) [1, 13]: no inhibitory effect
Contraction response to phenylephrine from resting force (maximum response) [2, 7]: 14.29 ± 0.76 grams of tension
Contraction response to phenylephrine from resting force (maximum response) [2, 8]: 12.33 ± 0.76 grams of tension
Contraction response to phenylephrine from resting force (maximum response) [2, 9]: 10.46 ± 0.52 grams of tension
Maximal constrictor response to phenylephrine compared with control vessels (in words) [2, 12]: paradoxical trend toward increased maximal constrictor response
Effect on phenylephrine-induced contraction (in words) [2, 13]: no inhibitory effect

CC(COc1ccccc1)N(CCCl)Cc1ccccc1 (centres unmarked) [phenoxybenzamine]
Contraction response to norepinephrine from resting force (maximum response) [1, 7]: 0.80 ± 0.05^b grams of tension
Contraction response to norepinephrine from resting force (maximum response) [1, 8]: −0.58 ± 0.05^b grams of tension
Contraction response to norepinephrine from resting force (maximum response) [1, 9]: −1.62 ± 0.36^b grams of tension
Maximal constriction response to norepinephrine, % of KCl response [1, 10]: −7%±1%
Maximal constriction response to norepinephrine, % of KCl response [1, 14]: −5%±5%
Maximal constriction response to norepinephrine, % of KCl response [1, 11]: −20%±5%
Contraction response to phenylephrine from resting force (maximum response) [2, 7]: 2.03 ± 0.13 ^b grams of tension
Contraction response to phenylephrine from resting force (maximum response) [2, 8]: 0.20 ± 0.01^b grams of tension
Contraction response to phenylephrine from resting force (maximum response) [2, 9]: −1.08 ± 0.19^b grams of tension
Constriction response to the maximum concentration of phenylephrine, % of KCl response [2, 10]: 19%±8%
Constriction response to the maximum concentration of phenylephrine, % of KCl response [2, 14]: 1%±4%
Constriction response to the maximum concentration of phenylephrine, % of KCl response [2, 11]: −12%±4%
Maximum relaxation response to the highest concentration of acetylcholine ([3]; after 24 hours of storage): 57%±6%
Maximum relaxation response to the highest concentration of acetylcholine ([3]; after 48 hours of storage): 30%±5%
Maximum relaxation response to the highest concentration of acetylcholine ([3]; at 2 hours of storage): 61%±5%
Attenuation of vasoconstriction response to PE, % of control ([4]; 10 μM PBZ): 63%
Contraction at the highest concentration of PE, % of the KCl response ([4]; 10 μM PBZ 30 min in addition to papaverine/lidocaine): 16.5±4.3%
Attenuation of vasoconstriction response to PE, % of control ([4]; 100 μM PBZ): 80%
Contraction at the highest concentration of PE, % of the KCl response ([4]; 100 μM PBZ 30 min in addition to papaverine/lidocaine): 8.7±5.1%
Attenuation of vasoconstriction response to PE, % of control ([4]; 1000 μM PBZ): 116%
Contraction at the highest concentration of PE, % of the KCl response ([4]; 1000 μM PBZ 30 min in addition to papaverine/lidocaine): −7.2±4.4%
Effect on constriction to NE (in words) ([5]; PBZ at 10 μM): inhibited constriction to concentrations of NE greater than 7 μM
Effect on constrictor responses to NE (in words) ([5]; PBZ at 1000 μM, across all concentrations of NE): completely inhibited
Relaxation response to ACh (percent tension reduction from U46619 contraction) [6]: 81.0±11.8%
